The source of these data is patent US6326177A, “Method and apparatus for intracellular electro-manipulation” (Eastern Virginia Medical School of the Medical College of …, priority 2000, dated 2001).

Entries after “also recorded” stand apart in the source; their conditions may differ.

For one test, the system named is eosinophils. As to the kind of experiment: Free calcein staining of eosinophil granules after Triton X-100 treatment (fluorescence and Wright-Giemsa microscopy). As to conditions: 5 minutes. It counts as cell-based, human. The protocol:
BOTTOM ROW: Wright-Giemsa stained (above) and fluorescent (below) images of eosinophils treated with 1 μM free calcein+0.005% Triton X-100 for 5 minutes (left), eosinophils treated with 0.01% Triton X-100+1 μM free calcein (5 minutes) (center) and eosinophils incubated in 0.05% Triton X-100+1 μM free calcein for 5 minutes.
Free calcein is a highly fluorescent modified fluorescein with 6 negative and 2 positive charges that is membrane impermeant. In its methyl ester form, calcein-AM, it is non-fluorescent and membrane permeable. When used as a fluorescent stain for cells, calcein-AM passes through the surface membrane and is cleaved to free calcein+the methyl ester residue by intracellular esterase activities. This modification traps the free calcein in the cytoplasm of the cell, and retention of the free calcein is a common criterion for intactness of the surface membrane.

The next test concerns PMN. As to the kind of experiment: Triton X-100 effect on PMN in the free calcein staining experiment. It is filed as cell-based, human. As to conditions: 5 minutes. As for the experimental part: Aliquots of an eosinophil-enriched leukocyte preparation (65% eosinophils) were exposed to 1 μM free calcein in HBSSw/o plus increasing amounts (0%-0.05%) Triton X-100 (5 minutes, 25° C.) and examined microscopically. […] Red eosinophil autofluorescence was readily visible and was also visible in all conditions up to and including the free calcein +0.01% Triton exposure. […] After Wright-Giemsa staining, these were recognized to be the residual nuclei of fully detergent-solubilized cells (pale green fluorescence) with associated eosinophilic granules corresponding exactly to the punctate areas of bright fluorescence (see FIG. 26).
Calcein-AM stained eosinophils trap free calcein in their cytoplasm after staining (left), and the intracellular free calcein is excluded from the eosinophil's large granules as shown on the left.

Where [1] appears, read: 0.001% Triton X-100 + 1 μM free calcein.
[2] abbreviates: 0.005% Triton X-100 + 1 μM free calcein.

For Triton X-100, the “free calcein staining / detergent effect on eosinophils” value with eosinophils (setting [1]) is “free calcein continues to be excluded from eosinophils”; in the test on eosinophils (setting [2]), “the morphology of some eosinophils suggests partial detergent solubilization which is accompanied by bright free calcein staining of eosinophil granules”; in the test on eosinophils (0.01% Triton X-100 + 1 μM free calcein), “occasional eosinophils showed an isolated bright green granule within the eosinophil autofluorescence pattern; also recorded: all eosinophils show nuclear changes suggestive of detergent effect, and many contain 1-2 bright granules on a background of red autofluorescence”; with eosinophils (0.05% Triton X-100 + 1 μM free calcein), “many discrete areas of pale green fluorescence with overlying, bright green punctate areas of fluorescence; also recorded: only eosinophil nuclear remnants are seen”. The “free calcein staining / detergent effect on PMN” value in the test on PMN (setting [1]) was “stains the fine granules of a PMN showing obvious detergent effects”; with PMN (setting [2]), “detergent solubilized PMN show very fine, fluorescent "calcein sand" staining patterns”.
For `O=C(O)CN(CC(=O)O)Cc1cc2c(cc1O)Oc1cc(O)c(CN(CC(=O)O)CC(=O)O)cc1C21OC(=O)c2ccccc21` [free calcein], the “calcein staining of eosinophils exposed to free calcein without Triton” value with eosinophils (1 μM free calcein in HBSSw/o, 0% Triton, 25° C.) is on record as “no calcein staining; also recorded: incapable of staining eosinophil cytoplasm”.
